Data on six compounds can be found in US20230357134A1, “AGENTS FOR USE IN THE TREATMENT OF AMYLOIDOSIS” (UCL BUSINESS LTD, priority 2020, published 2023).

Series [1] addresses T1, TTR in whole human plasma (Homo sapiens, UniProt P02766).
T1 construct: TTR in whole plasma, from individuals homozygous for wild type TTR; from tissue; host or cells: whole human plasma
As to the kind of experiment: Displacement of 125I-T4 from TTR in normal human plasma. Particulars: wild type TTR, 30 min 37° C. with ligand, immunoprecipitation, mean of at least 3 replicates, read-out: D50 plasma. The series is classed as binding. The procedure: 3.2 Displacement of ^125-T4 from TTR in Normal Human Plasma.
The displacement of ^125I-T4 from TTR in whole plasma, from individuals homozygous for wild type TTR, was studied by incubating plasma with each ligand at increasing concentrations for 30 min at 37° C., further incubation with […] followed by measurement of the radioactivity in the immunoprecipitate obtained with anti-TTR antibodies. […] Percentage binding was plotted against the logarithm of the inhibitor concentration, and D50 (concentration of ligand reducing the binding of T4 by TTR by 50%) was determined using a four parameter dose-response curve with GraphPad Prism 5 (Table 1).
A general note: Loss of bound radioactivity is the signal in a displacement assay; it reports binding, not function.

Series [2] addresses T2, recombinant Val122Ile TTR (Homo sapiens, UniProt P02766, V142I).
T2 construct: the non-covalently associated protomers, of mass 13,761, each contain 127 residues; His6 (N); TEV cleavage site (N); made in house; host or cells: E. coli BL21 (DE3)
As to the kind of experiment: Mechano-enzymatic fibrillogenesis, TTR aggregation by turbidity at 400 nm. Conditions: equimolar ligand, Val122Ile TTR 9 μM, trypsin, 96 h; 100 % = protein without ligand; mean (SD). The series is classed as biochemical. The procedure: (§1) Briefly, fibrillogenesis of recombinant Val122Ile TTR at 0.5 mg/ml (9 μM) in PBS, pH 7.4 was carried out in glass vials stirred at 1,400 rpm (IKA magnetic stirrer) and 37° C. in the presence and in the absence of trypsin (5 ng/μl). […] Each ligand was tested at 4 different concentrations (4.5, 9, 18, 36 μM respectively) corresponding to the following drug/TTR molar ratios of 0.5:1, 1:1, 2:1 and 4:1. Several dilutions of the drug stock solutions were made in order to add the same volume of DMSO to each sample. Control samples without drug were added with the same volume of DMSO only. To allow complete binding of ligand by TTR each sample was incubated for 30 min at 37° C. before addition of trypsin. Spectrophotometric turbidity at 400 nm was used to monitor fibril formation over time until it reached a plateau at 96 h. Aggregation of TTR in the presence of equimolar ligand concentrations was quantified as spectrophotometric turbidity at 400 nm as a proportion of 100% for aggregation of the protein in the absence of ligands (Table 2).

Series [3] deals with T2, recombinant Val122Ile TTR. As to the kind of experiment: Mechano-enzymatic fibrillogenesis, TTR amyloid by ThT emission fluorescence. The series is classed as biochemical. Particulars: equimolar ligand, 96 h pellets, normalized to 100 % without ligand, mean (SD). As to the method: as §1
At the end of the 96 h aggregation, pellets were harvested from each protein sample by 20 min centrifugation at 11,600 g, thoroughly rinsed with PBS to remove non-bound ligand, resuspended with 100 μl PBS, pH 7.4 containing 10 μM ThT in Costar 96-well black-wall plates. Bottom fluorescence values (excitation 440 nm, emission 480 nm) were recorded using a BMG LABTECH FLUostar Omega plate reader. Each value was normalized to the ThT signal of the TTR sample without ligand (Table 2)

For the next series, the target named is T3, isolated wild type TTR (Homo sapiens, UniProt P02766).
T3 construct: the non-covalently associated protomers, of mass 13,761, each contain 127 residues; His6 (N); TEV cleavage site (N); made in house; host or cells: E. coli BL21 (DE3)
As to the kind of experiment: Displacement of 125I-T4 from isolated wild type TTR in buffer. Particulars: concentration of ligand reducing binding of 125I-T4 by TTR by 50%; 125 nM TTR, pH 8.0, overnight 4° C.; mean of at least 3 replicates; read-out: D50 buffer. As to the method:
3. Evaluation of Ligand Activity Based on Capacity to Displace ^125I-Thyroxine (T4) from TTR in Buffer/Human Plasma 3.1 Displacement of ^125I-T4 from Isolated Wild Type TR.
Competition of ligands with T4 for binding by TTR was assayed quantitatively by a previously described procedure (Kolstoe et al., 2010). Briefly, a solution of 125 nM TTR in 0.1 M Tris-HCl, 0.1 M NaCl and 0.001 M EDTA buffer, pH 8.0, was incubated overnight at 4° C. in the presence of 1.07 nM ^125I T4 (1,200 μCi/μg, 200 μCi/ml, Perkin Elmer) and increasing concentrations of inhibitor (0-5 μM) in 40 μl final volume. ^125I T4 bound by TTR was separated from unbound T4 by gel filtration chromatography using Micro Bio Spin 6 columns (Bio-Rad) previously equilibrated with the reaction buffer containing 1% w/v BSA. After counting with a Wizard2 gamma counter (Perkin-Elmer) for 60 s, percentage binding was plotted against the logarithm of the inhibitor concentration, and D50 (concentration of ligand reducing the binding of T4 by TTR by 50%) was determined using a four parameters dose-response curve with GraphPad Prism 5 (Table 1).

Series [4] has as its target T4, native recombinant wild type TTR (Homo sapiens, UniProt P02766).
T4 construct: the non-covalently associated protomers, of mass 13,761, each contain 127 residues; His6 (N); TEV cleavage site (N); made in house; host or cells: E. coli BL21 (DE3)
As to the kind of experiment: Kinetics of ligand binding by TTR (stopped flow quenching of intrinsic fluorescence). Particulars: for T 1/2: TTR 1 μM with equimolar ligand, 37° C., PBS pH 7.4, t½ = ln 2/k. As to the method:
Ligand binding by native TTR quenches the intrinsic fluorescence of the protein. After mixing of ligands with TTR in solution, monitoring emission of the intrinsic fluorescence over time defines the rate at which the ligand is bound by the protein. The fast phase of these binding kinetics was characterized using an SFM 3000 stopped flow device coupled to a MOS500 spectrometer with a fluorescence detection system (Bio Logic, Claix, France) and a cell path length of 1.5 mm. TTR and ligands at 37° C. were mixed at final concentrations of 1 μM each in PBS pH 7.4 containing 0.9% v/v DMSO, and were excited at 280 nm for measurement of total fluorescence emission over 325 nm using a cut off filter. Kinetic data were acquired as the average of at least 3 experimental mixings and fitted to a first order reaction using the general formula y(t)=at +b+C exp (−kt), where y(t) is the observed fluorescence, a (slope) and b (offset) corresponding to the baseline. C and k are, respectively, amplitude and rate constant of the observed fluorescence change. Data were analysed using the Biokine software and values of half-life time (t½) correspond to ln 2/k. (Table 3).

The target in a further series is T5, (2H, 13C, 15N) TTR (Homo sapiens, UniProt P02766).
T5 construct: the non-covalently associated protomers, of mass 13,761, each contain 127 residues; His6 (N); TEV cleavage site (N); made in house; host or cells: E. coli BL21 (DE3)
As to the kind of experiment: 2D NMR [1H,15N] TROSY of TTR-ligand complexes. Conditions: equimolar ligand, 90 μM TTR, PBS pH 7.4, 310K. The series is classed as binding. The procedure: Using the same methodology as in Corazza 2019, we have studied the effect of equimolar addition of T304 or B23 to a sample of 90 μM (^2H, ^13C,^15N) TTR in PBS buffer, pH 7.4. 2D NMR [^1H,[…]] TROSY spectra were acquired with a Bruker AVANCE 800 MHz Spectrometer at 310K. After the addition of T304 or B23 to TTR some of the amide peaks of the apo form vanish and new peaks of the holo species appear indicating the binding of T304 or B23 by TTR. The changes occur for specific TTR residues where the protein senses the chemical effect of the ligands or where the ligands induce structural changes in the protein. […] Analysis of the chemical shift perturbations in the holo TTR structure confirms the involvement of the halogen binding pocket in the binding but also highlights an effect that is well beyond the ligand binding site, involving the outer helix and the outer beta strands.

The nature of the next series: Rat IV pharmacokinetics. Particulars: in vivo, 1 mg/kg, 1 mpk, read-out: Rat IV PK t½ (converted).
The nature of series [5]: Rat oral pharmacokinetics. Particulars: in vivo, 5 mg/kg, 5 mpk.
The conditions of series [6]: background statement; cited from earlier work.

For the compound `O=C(O)CCc1cc(Cl)c(OCC[C@@H](O)[C@H](O)CCOc2c(Cl)cc(-c3nc4ccc(C(=O)O)cc4o3)cc2Cl)c(Cl)c1` [Compound B16, 2-[4-[(3R,4R)-6-[4-(2-carboxyethyl)-2,6-dichloro-phenoxy]-3,4-dihydroxy-hexoxy]-3,5-dichloro-phenyl]-1,3-benzoxazole-6-carboxylic acid], the IC50 was 14100 nM in [1] and 90 nM on isolated wild type TTR. In addition, the “% Aggregation (Turbidity method)” value in series [2] is 4.42 (1.45) %. Besides, in series [3], the “% Aggregation (Fluorescence method)” value is 4.76 (3.13) %. Besides, the “T 1/2” value in series [4] came to 1.415 s.
By Cmax is commonly meant the peak of the concentration-time curve. On to `CCc1oc(-c2cc(Cl)c(OCC[C@@H](O)[C@H](O)CCOc3c(Cl)cc(CCC(=O)O)cc3Cl)c(Cl)c2)nc1C(=O)O` [Compound B23, 2-[4-[(3R,4R)-6-[4-(2-carboxyethyl)-2,6-dichloro-phenoxy]-3,4-dihydroxy-hexoxy]-3,5-dichloro-phenyl]-5-ethyl-oxazole-4-carboxylic acid], for which the “binding mode by NMR chemical shift changes” value on (2H, 13C, 15N) TTR is given as “occupancy of both binding sites”. The IC50 was 9800 nM in series [1] and 110 nM at isolated wild type TTR. In addition, the “% Aggregation (Turbidity method)” value in [2] is reported as 4.41 (1.99) %. Moreover, the “% Aggregation (Fluorescence method)” value in series [3] is recorded as 12.6 (4.42) %. Besides, in the series “Rat IV pharmacokinetics”, the half-life is 5.11 h. This compound also registered a Cmax in series [5] of 2580 ng/mL. In series [4], the “T 1/2” value came to 1.216 s.
With `O=C(O)CCc1cc(Cl)c(OCCCOCCOc2c(Cl)cc(Nc3ccnnc3C(=O)O)cc2Cl)c(Cl)c1` [Compound B25, 4-[4-[2-[3-[4-(2-carboxyethyl)-2,6-dichloro-phenoxy]propoxy]ethoxy]-3,5-dichloro-anilino]pyridazine-3-carboxylic acid], the IC50 in [1] was 3200 nM; at isolated wild type TTR, 70 nM. The “% Aggregation (Turbidity method)” value in [2] is reported as 3.96 (1.04) %. Besides, the “% Aggregation (Fluorescence method)” value in series [3] is reported as 8.96 (7.24) %. For the same compound, in the series “Rat IV pharmacokinetics”, the half-life is 6.97 h. The compound also displayed a Cmax in [5] of 217 ng/mL.
As for `O=C(O)CCc1cc(Cl)c(OCCCOCCOc2c(Cl)cc(Nc3cnccc3C(=O)O)cc2Cl)c(Cl)c1` [Compound B26, 3-[4-[2-[3-[4-(2-carboxyethyl)-2,6-dichloro-phenoxy]propoxy]ethoxy]-3,5-dichloro-anilino]pyridine-4-carboxylic acid], the results for the IC50 (in series [1]; on isolated wild type TTR) were 1400 nM and 90 nM, respectively. The “% Aggregation (Turbidity method)” value in [2] is 3.93 (1.73) %. Further, in [3], the “% Aggregation (Fluorescence method)” value is reported as 4.62 (2.37) %. Further, the half-life in “Rat IV pharmacokinetics” is 5.5 h. Further, in [5], the Cmax came to 1450 ng/mL.
On to `O=C(O)CCc1cc(Cl)c(OCCCOCCOc2c(Cl)cc(Nc3ccncc3C(=O)O)cc2Cl)c(Cl)c1` [Compound B27, 4-[4-[2-[3-[4-(2-carboxyethyl)-2,6-dichloro-phenoxy]propoxy]ethoxy]-3,5-dichloro-anilino]pyridine-3-carboxylic acid], for which the figures for the IC50 (in series [1]; on isolated wild type TTR) were 2200 nM and 100 nM, respectively. Besides, the “% Aggregation (Turbidity method)” value in [2] is 4.24 (1.96) %. Also, the “% Aggregation (Fluorescence method)” value in [3] was 12.0 (1.06) %. Moreover, the half-life in “Rat IV pharmacokinetics” was 5.34 h. Further, the Cmax in series [5] turned out to be 316 ng/mL. Moreover, the “T 1/2” value in series [4] is 0.866 s.
`O=C(O)c1ccccc1Nc1cc(Cl)c(OCCCCCCCOc2c(Cl)cc(Nc3ccccc3C(=O)O)cc2Cl)c(Cl)c1` [mds84, reference compound]: in series [6], the “bioavailability for an oral drug” value is “very poor” and the half-life in vivo result is given as “short”. The “rate constant k of ligand-induced quenching reaction” value in series [4] (TTR and ligand 1 μM each) came out at 0.202 s⁻¹. In addition, in [4] (millisecond time scale, fluorescence quenching), the burst phase amplitude stood at 8%.
